This passage reports IC50 and Ki results from ChEMBL document CHEMBL1129620 (J Med Chem, 1996).

The target in assay [1] is T1, Translocator protein (Rattus norvegicus, UniProt P16257). The assay can be described thus: Inhibition of binding of [3H]-PK 11195 to peripheral-type benzodiazepine receptor (PBR) from rat cortex homogenate.
In assay [2] the target is T1, Translocator protein. The assay can be described thus: Binding affinity against peripheral-type benzodiazepine receptor (PBR) from rat cortex homogenate using [3H]-PK 11195 as radioligand.
Assay [3] addresses T1, Translocator protein. As to the kind of experiment: Displacement [3H]-PK 11195 from rat adrenal peripheral-type benzodiazepine receptor (PBR).
The target of assay [4] is T1, Translocator protein. As to the kind of experiment: Displacement of [3H]-Ro- 5-4864 from rat adrenal peripheral-type benzodiazepine receptor (PBR). In general terms: In a radioligand displacement assay an active substance lowers the binding of a labelled ligand.

T1 sequence (P16257 whole entry, looked up): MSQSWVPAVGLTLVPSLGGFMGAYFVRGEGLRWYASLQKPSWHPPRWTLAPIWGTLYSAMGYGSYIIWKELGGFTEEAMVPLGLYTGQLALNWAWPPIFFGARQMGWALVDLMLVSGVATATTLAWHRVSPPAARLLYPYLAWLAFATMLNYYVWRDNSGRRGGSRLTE

Usually IC50 stands for the point on the concentration scale where inhibition reaches its midpoint. Higher therefore signals lower potency. The term Ki denotes a measure of affinity in units of concentration, obtained from inhibition or displacement. A low value points to tighter binding. In the case of `CCN(CC)C(=O)OC1=C(c2ccccc2)Oc2ccccc2-n2cccc21`, the IC50 on Translocator protein [1] came to 0.68 nM. The molecule also came in with a Ki at Translocator protein [2] of 0.26 nM.

At Translocator protein [1], `CC(=O)OC1=C(c2ccc(C)cc2)Oc2ccccc2-n2cccc21` had an IC50 of 2.3 nM. For the same molecule, the Ki at Translocator protein [3] was determined as 2.8 nM; on Translocator protein [4], 1.7 nM; at Translocator protein [2] it was 0.91 nM.

`COc1ccc(C2=C(OC(=O)c3cccnc3)c3cccn3-c3ccccc3S2)cc1` yielded an IC50 on Translocator protein [1] of more than 100000 nM.

Consider `CCN(CC)C(=O)OC1=C(c2ccc(C)cc2)Oc2ccccc2-n2cccc21`, for which, on Translocator protein [1], the concentration for half-maximal inhibition (IC50) came out at 0.94 nM. Also, the Ki came to 1.9 nM on Translocator protein [3], 1.9 nM at Translocator protein [4] and 0.36 nM on Translocator protein [2].

As to `CN(C)C(=O)OC1=C(c2ccccc2)Sc2c(Cl)cccc2-n2cccc21`, the results for the Ki on Translocator protein [3], at Translocator protein [4] and on Translocator protein [2] were 2.5 nM, 2.6 nM and 1.8 nM, respectively.

`CCN(CC)C(=S)OC1=C(c2ccccc2)Oc2ccccc2-n2cccc21` yielded an IC50 on Translocator protein [1] of 3.8 nM. For the same molecule, the Ki on Translocator protein [2] amounted to 1.5 nM.

In turn, `CC(=O)OC1=C(c2ccc3ccccc3c2)Oc2ccccc2-n2cccc21` displayed an IC50 at Translocator protein [1] of 76.6 nM. Besides, at Translocator protein [2], the Ki is 30 nM.

With `CC(=O)OC1=C(c2ccccc2)Sc2ccc(C)cc2-n2cccc21`, the affinity at Translocator protein [2], expressed as Ki, was 263 nM.

As for `CC(=O)OC1=C(c2ccccc2)Sc2cc(C)ccc2-n2cccc21`, the Ki at Translocator protein [2] worked out at 44 nM.

In turn, `CC(=O)C1=C(c2ccccc2)Oc2ccccc2-n2cccc21` came in with an IC50 at Translocator protein [1] of 64.6 nM. Besides, at Translocator protein [2], affinity was put at a Ki of 25.2 nM.

On Translocator protein [2], `CC(=O)OC1=C(c2ccccc2)Sc2ccccc2-n2cccc21` came in with a Ki of 7.6 nM.

In turn, `O=C(OC1=C(c2ccccc2)Oc2ccccc2-n2cccc21)C1CCCCC1` registered an IC50 on Translocator protein [1] of 81.9 nM. For the same molecule, the affinity on Translocator protein [2] corresponds to a Ki of 32 nM.

With `CN(C)C(=O)OC1=C(c2ccc(N=[N+]=[N-])cc2)Oc2ccccc2-n2cccc21`, on Translocator protein [1], the IC50 was found to be 3.6 nM. Moreover, the Ki on Translocator protein [3] was 4.8 nM; on Translocator protein [4], 3.6 nM; on Translocator protein [2], 1.4 nM.

`CCC1=C(OC(C)=O)c2cccn2-c2ccccc2O1`: at Translocator protein [1], the IC50 was more than 5000 nM.

Regarding `CC(=O)OCC1=C(c2ccccc2)Oc2ccccc2-n2cccc21`, the IC50 at Translocator protein [1] worked out at 1930 nM. In addition, at Translocator protein [2], the Ki came to 754 nM.

Consider `COC(=O)C1=C(c2ccccc2)Oc2ccccc2-n2cccc21`, for which the IC50 at Translocator protein [1] is 148 nM. The molecule further displayed a Ki at Translocator protein [2] of 57.8 nM.

Take `CN(C)C(=O)OC1=C(c2ccccc2)Sc2ccccc2-n2cccc21`: the Ki on Translocator protein [2] is 3.5 nM.

At Translocator protein [1], `CC(=O)OC1=C(c2ccccc2)Oc2cc3ccccc3cc2-n2cccc21` gave an IC50 of 278 nM. This molecule also registered a Ki on Translocator protein [2] of 108 nM.

Take `CC(=O)OC1=C(c2ccc(Cl)cc2)Sc2ccccc2-n2cccc21`: affinity at Translocator protein [2] was put at a Ki of 11.7 nM.

The molecule `CN(C)C(=O)OC1=C(c2ccccc2)Oc2c(Cl)cccc2-n2cccc21` displayed an IC50 on Translocator protein [1] of 1.3 nM. The molecule further displayed a Ki at Translocator protein [2] of 0.51 nM.

Regarding `CCC1=C(OC(=O)N(C)C)c2cccn2-c2ccccc2O1`, the IC50 at Translocator protein [1] came to 589 nM. In addition, at Translocator protein [2], the Ki was found to be 230 nM.

As for `CC(=O)OC1=C(c2ccccc2)Oc2ccccc2-n2cccc21`, the IC50 at Translocator protein [1] is 12.1 nM. Moreover, the Ki on Translocator protein [2] is 4.7 nM.
